# From US10231908B2, “Method of reducing hair loss associated with chemotherapy” (Galderma S.A., priority 2015, dated 2019)
# “Also recorded” adds a separate entry of the source. Structures can show the parent of a compound that is named as a salt.
# Assays:
# [1] = test system: cyclophosphamide-induced alopecia in C57B16 mice; assay: Cyclophosphamide-induced alopecia in mice after anagen induction by depilation; format: in vivo; conditions: for % of alopecia versus control: read on day 15
# [2] = epinephrine 450 mM topical plus CYP at day 9
smiles,measurement,setting,value
"Brc1c(NC2=NCCN2)ccc2nccnc12 [Brimonidine, Brimonidine tartrate]",% of alopecia versus control,"[1]; brimonidine 35 mM (1%) topical, 100 μL, at t-2 hours and repeated 2 hours later, CYP 120 mg/kg i.p. at day 9",prevents alopecia; also recorded: prevented hair loss
same,hair shedding in dorsal depilated area (representative pictures),"[1]; topical brimonidine, CYP-injected mice, day 15 after depilation",more hairs did not shed
"CNC[C@H](O)c1ccc(O)c(O)c1 [Epinephrine, Epinephrine hydrochloride]",body weight of mice,[2],temporarily decreased the body weight
same,% of alopecia versus control,"[1]; epinephrine 450 mM topical, 20 min before and 10, 40 and 60 min after CYP 120 mg/kg i.p. at day 9, hydrochloride",worsened it; also recorded: worsened alopecia
